Results: patent publication US10597388B2, “Pyridazinone herbicides” (FMC CORPORATION, priority 2014, dated 2020)

Key:
Format in all cases: in vivo
[1] = test system: corn (Zea mays); assay: Test A greenhouse herbicide test, pre- and postemergence; conditions: Postemergence; for Plant response rating, Corn: 125 g ai/ha; for Corn plant response rating: 500 g ai/ha, 0 to 100 scale, 0 is no effect, 100 is complete control
Summary of the method: (§1)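 Seeds sown in loam–sand blend got a preemergence directed soil spray of compound in non-phytotoxic solvent with surfactant. Postemergence treatment was given at 2–10 cm, one- to two-leaf stage. After ~10 d in greenhouse, injury was rated visually vs untreated controls, 0 (no effect) to 100 (complete control).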

[2] = test system: foxtail, giant (giant foxtail, Setaria faberii); assay: as above
Summary of the method: as §1

[3] = test system: ragweed (common ragweed, Ambrosia elatior); assay: as above
Summary of the method: as §1

[4] = test system: barnyardgrass (Echinochloa crus-galli); assay: as above
Summary of the method: as §1

[5] = test system: ryegrass, Italian (Italian ryegrass, Lolium multiflorum); assay: as above
Summary of the method: as §1

[6] = test system: pigweed (Amaranthus retroflexus); assay: as above
Summary of the method: as §1

[7] = test system: kochia (Kochia scoparia); assay: as above
Summary of the method: as §1

[8] = test system: wheat (Triticum aestivum); assay: as above; conditions: Postemergence; for Plant response rating, Wheat: 125 g ai/ha, 0 to 100 scale where 0 is no effect and 100 is complete control; for Wheat plant response rating: 500 g ai/ha, 0 to 100 scale, 0 is no effect, 100 is complete control
Summary of the method: as §1

[9] = test system: mustard, wild (wild mustard, Sinapis arvensis); assay: Test D controlled growth environment herbicide test, pre- and postemergence; conditions: for Mustard, Wild plant response rating / Plant response rating (scale of 0 to 100), Mustard, Wild: 31 g ai/ha
Text: Seeds of plant species selected from bluegrass (annual bluegrass, Poa annua), blackgrass (Alopecurus myosuroides), Canada thistle (Cirsium arvense), canarygrass (Phalaris minor), chickweed (common chickweed, Stellaria media), geranium, cutleaf (cutleaf geranium, Geranium dissectum), galium (catchweed bedstraw, Galium aparine), bromegrass, downy (downy bromegrass, Bromus tectorum), field poppy (Papaver rhoeas), field violet (Viola arvensis), foxtail, green (green foxtail, Setaria viridis), deadnettle (henbit deadnettle, Lamium amplexicaule), ryegrass, Italian (Italian ryegrass, Lolium multiflorum), kochia (Kochia scoparia), lambsquarters (Chenopodium album), oilseed rape (Brassica napus), pigweed (Amaranthus retroflexus), chamomile (scentless chamomile, Matricaria inodora), Russian thistle (Salsola kali), speedwell (bird's-eye speedwell, Veronica persica), barley, spring (spring barley, Hordeum vulgare), wheat, spring (spring wheat, Triticum aestivum), buckwheat, wild (wild buckwheat, Polygonum convolvulus), mustard, wild (wild mustard, Sinapis arvensis), oat, wild (wild oat, Avena fatua), radish, wild (wild radish, Raphanus raphanistrum), windgrass (Apera spica-venti), barley, winter (winter barley, Hordeum vulgare), and wheat, winter (winter wheat, Triticum aestivum) were planted into a silt loam soil and treated preemergence with test chemicals formulated in a non-phytotoxic solvent mixture which included a surfactant.
At the same time, these species were planted in pots containing Redi-Earth® planting medium (Scotts Company, 14111 Scottslawn Road, Marysville, Ohio 43041) comprising spaghnum peat moss, vermiculite, wetting agent and starter nutrients and treated with postemergence applications of the test chemicals formulated in the same manner. Plants ranged in height from 2 to 18 cm (1- to 4-leaf stage). Treated plants and controls were maintained in a controlled growth environment for 14 to 21 d after which time all species were compared to controls and visually evaluated. Plant response ratings, summarized in Table D, are based on a scale of 0 to 100 where 0 is no effect and 100 is complete control. A dash (-) response means no test result.

[10] = Postemergence, 125 g ai/ha, visual rating after approx. 10 d, 0 to 100 scale (0 no effect, 100 complete control)
[11] = Postemergence, 500 g ai/ha, 0 to 100 scale, 0 is no effect, 100 is complete control
[12] = Preemergence, 125 g ai/ha, 0 to 100 scale where 0 is no effect and 100 is complete control
[13] = Preemergence, 500 g ai/ha, 0 to 100 scale, 0 no effect, 100 complete control
[14] = Postemergence, 125 g ai/ha, 0 to 100 scale where 0 is no effect and 100 is complete control
[15] = Postemergence, scale 0 to 100 (0 no effect, 100 complete control)
[16] = Postemergence, 125 g ai/ha, visual rating on scale 0 (no effect) to 100 (complete control), 14 to 21 d
[17] = Postemergence, 250 g ai/ha, scale 0 to 100 (0 no effect, 100 complete control)
[18] = Preemergence, 62 g ai/ha, scale 0 to 100 (0 no effect, 100 complete control)
[19] = Preemergence, 125 g ai/ha, scale 0 to 100 (0 no effect, 100 complete control)
[20] = Preemergence, 250 g ai/ha, scale 0 to 100, 0 no effect, 100 complete control
[21] = postemergence, 62 g ai/ha, scale 0 to 100, 0 no effect, 100 complete control
[22] = 0 to 100 scale where 0 is no effect and 100 is complete control

Structure (SMILES) | Corn plant response rating [1] | Foxtail, Giant plant response rating [2, 11] | Foxtail, Giant plant response rating [2, 12] | Plant response rating, Foxtail, Giant [2, 13] | Ragweed plant response rating [3, 11] | Ragweed plant response rating [3, 12] | Plant response rating, Ragweed [3, 13] | Barnyardgrass plant response rating [4, 11] | Barnyardgrass plant response rating [4, 12] | Plant response rating, Barnyardgrass [4, 13] | Plant response rating, Ryegrass, Italian [5, 14] | Ryegrass, Italian plant response rating [5, 11] | Ryegrass, Italian plant response rating [5, 12] | Plant response rating, Ryegrass, Italian [5, 13] | Pigweed plant response rating [6, 11] | Pigweed plant response rating [6, 12] | Plant response rating, Pigweed [6, 13] | Kochia plant response rating [7, 11] | Kochia plant response rating [7, 12] | Plant response rating, Kochia [7, 13] | other results
Cc1nn(C)c(=O)c(-c2c(C)sc3c(C)cc(Cl)cc23)c1O [Compound 35] | 30 | 90 | 90 | 100 | 80 | 70 | 80 | 90 | 60 | 90 | 80 | 100 | 90 | 90 | 90 | 60 | 90 | 100 | 40 | 70 | Plant response rating, Corn ([1]; visual rating after approx. 10 d, 0 to 100 scale (0 no effect, 100 complete control)): 0; Plant response rating, Foxtail, Giant [2, 10]: 90; Plant response rating, Ragweed [3, 10]: 50; Plant response rating, Barnyardgrass [4, 10]: 50; Plant response rating, Pigweed [6, 10]: 80; Plant response rating, Kochia [7, 10]: 80; Plant response rating, Wheat [8]: 20; Wheat plant response rating [8]: 40; Mustard, Wild plant response rating [9, 15]: 98; Plant response rating, Mustard, Wild [9, 16]: 100; Plant response rating, Mustard, Wild [9, 17]: 100; Plant response rating (scale of 0 to 100), Mustard, Wild ([9]; Preemergence): 85; Plant response rating, Mustard, Wild [9, 18]: 100; Plant response rating, Mustard, Wild [9, 19]: 100; Plant response rating, Mustard, Wild [9, 20]: 100; Plant response rating, Mustard, Wild [9, 21]: 100
Cc1nn(C)c(=O)c(-c2ccc(F)c3ccccc23)c1O [Compound 41] | 70 | 100 | 70 | 90 | 100 | 80 | 90 | 90 | 20 | 90 | 100 | 100 | 100 | 100 | 90 | 100 | 100 | 100 | 90 | 100 | Plant response rating, Corn [1, 22]: 20; Plant response rating, Foxtail, Giant [2, 14]: 70; Plant response rating, Ragweed [3, 14]: 70; Plant response rating, Barnyardgrass [4, 14]: 30; Plant response rating, Pigweed [6, 14]: 60; Plant response rating, Kochia [7, 14]: 100; Plant response rating, Wheat [8]: 0; Wheat plant response rating [8]: 80; Mustard, Wild plant response rating [9, 15]: 90; Plant response rating, Mustard, Wild [9, 16]: 100; Plant response rating, Mustard, Wild [9, 17]: 100; Plant response rating (scale of 0 to 100), Mustard, Wild ([9]; Preemergence): 70; Plant response rating, Mustard, Wild [9, 18]: 90; Plant response rating, Mustard, Wild [9, 19]: 95; Plant response rating, Mustard, Wild [9, 20]: 95; Plant response rating, Mustard, Wild [9, 21]: 100
CCc1sc2ccc(C)cc2c1-c1c(O)c(C)nn(C)c1=O [Compound 47] | 10 | 80 | 70 | 80 | 100 | 80 | 90 | 80 | 70 | 90 | 70 | 80 | 60 | 90 | 100 | 70 | 100 | 90 | 10 | 90 | Plant response rating, Corn [1, 22]: 0; Plant response rating, Foxtail, Giant [2, 14]: 80; Plant response rating, Ragweed [3, 14]: 100; Plant response rating, Barnyardgrass [4, 14]: 40; Plant response rating, Pigweed [6, 14]: 100; Plant response rating, Kochia [7, 14]: 90; Plant response rating, Wheat [8]: 0; Wheat plant response rating [8]: 0; Mustard, Wild plant response rating [9, 15]: 0; Plant response rating, Mustard, Wild [9, 16]: 15; Plant response rating, Mustard, Wild [9, 17]: 25; Plant response rating (scale of 0 to 100), Mustard, Wild ([9]; Preemergence): 10; Plant response rating, Mustard, Wild [9, 18]: 20; Plant response rating, Mustard, Wild [9, 19]: 40; Plant response rating, Mustard, Wild [9, 20]: 65; Plant response rating, Mustard, Wild [9, 21]: 0
CCc1sc2c(C)cc(C)cc2c1-c1c(O)c(C)nn(C)c1=O [Compound 57] | 30 | 90 | 100 | 100 | 100 | 90 | 100 | 100 | 100 | 100 | 70 | 90 | 90 | 100 | 100 | 100 | 100 | 100 | 100 | 100 | Plant response rating, Corn [1, 22]: 20; Plant response rating, Foxtail, Giant [2, 14]: 80; Plant response rating, Ragweed [3, 14]: 100; Plant response rating, Barnyardgrass [4, 14]: 90; Plant response rating, Pigweed [6, 14]: 100; Plant response rating, Kochia [7, 14]: 80; Plant response rating, Wheat [8]: 0; Wheat plant response rating [8]: 10; Mustard, Wild plant response rating [9, 15]: 30; Plant response rating, Mustard, Wild [9, 16]: 30; Plant response rating, Mustard, Wild [9, 17]: 40; Plant response rating (scale of 0 to 100), Mustard, Wild ([9]; Preemergence): 0; Plant response rating, Mustard, Wild [9, 18]: 25; Plant response rating, Mustard, Wild [9, 19]: 25; Plant response rating, Mustard, Wild [9, 20]: 30; Plant response rating, Mustard, Wild [9, 21]: 30
